Experiments:
Setaria viridis [1] = assay: Pre-emergence herbicidal action, greenhouse, 320 g/ha; assay type: in vivo; conditions: application rate 320 g/ha, Table B11
How it was run: (§1)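 Sow seeds in soil-filled pots, cover. Spray compound (WP/EC, aqueous, +0.5% additive) on covering soil. Hold under good growth conditions ~3 wk. Score % effect visually vs untreated.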

Stellaria media [2] = assay: as above; assay type: in vivo; conditions: application rate 320 g/ha, scored visually after about 3 weeks vs untreated controls
How it was run: as §1

Echinochloa crus-galli [3] = assay: as above; assay type: in vivo; conditions: application rate 320 g/ha, scored visually after about 3 weeks vs untreated controls
How it was run: as §1

Avena fatua = assay: as above; assay type: in vivo; conditions: application rate 320 g/ha, scored visually after about 3 weeks vs untreated controls
How it was run: as §1

Matricaria inodora [4] = assay: as above; assay type: in vivo; conditions: application rate 320 g/ha, scored visually after about 3 weeks vs untreated controls
How it was run: as §1

Abutilon theophrasti [5] = assay: as above; assay type: in vivo; conditions: application rate 320 g/ha, scored visually after about 3 weeks vs untreated controls
How it was run: as §1

Alopecurus myosuroides = assay: as above; assay type: in vivo; conditions: application rate 320 g/ha, scored visually after about 3 weeks vs untreated controls
How it was run: as §1

Viola tricolor = assay: as above; assay type: in vivo; conditions: application rate 320 g/ha, Table B8
How it was run: as §1

Pharbitis purpurea [6] = assay: as above; assay type: in vivo; conditions: application rate 320 g/ha, Table B12
How it was run: as §1

Polygonum convolvulus = assay: as above; assay type: in vivo; conditions: application rate 320 g/ha, scored visually after about 3 weeks vs untreated controls
How it was run: as §1

Hordeum murinum = assay: as above; assay type: in vivo; conditions: application rate 320 g/ha, Table B14
How it was run: as §1

Amaranthus retroflexus [7] = assay: as above; assay type: in vivo; conditions: application rate 320 g/ha, scored visually after about 3 weeks vs untreated controls
How it was run: as §1

photosystem II (PS II) = biological target: T1, photosystem II (PS II) (Spinacia oleracea, UniProt P69560); assay: Measurement of PS II activity in thylakoid membranes (DCPIP reduction); assay type: biochemical, spinach; conditions: PS II activity in spinach thylakoid membranes, Table E1; read-out: Effect
T1 construct: the chloroplasts were osmotically ruptured and the thylakoid membranes were then obtained by centrifugation; from tissue; host or cells: fresh spinach leaves; thylakoid membrane preparation from isolated chloroplasts
Method: Cooled fresh spinach leaves were comminuted and homogenized in 50 mM phosphate buffer, pH 6.8. 10 mM KCl, 0.34 M sucrose (sucrose buffer) (blender, 1 g of plant material/ml). The homogenate was subsequently filtered through 4 layers of Miracloth and the chloroplasts were isolated by centrifugation, i.e. 10 min of centrifugation at 4400×g (4° C.). The sediment was suspended in 25 ml of sucrose buffer and re-centrifuged for 10 min at 4400×g (4° C.). The sediment was then suspended in 40 ml of 50 mM phosphate buffer, pH 6.8, 10 mM KCl, without sucrose. In this step, the chloroplasts were osmotically ruptured and the thylakoid membranes were then obtained by centrifugation (10 min, 4400×g, 4° C.). The membrane sediment was finally suspended in about 20 ml of 50 mM phosphate buffer, pH 6.8, 10 mM KCl. Following protein determination and activity determination, the membrane suspension was divided into aliquots and frozen in liquid nitrogen. The aliquots were stored at −80° C. Under these conditions, the photosystem II preparation was storage stable for at least three months. The activity determination of photosystem II (PS II) was then carried out using the following test principle: The electron transfer from PS II to an artificial electron acceptor, 2,6-dichlorophenolindophenol (DCPIP), was measured with exposure to light. The concentration of the blue oxidized form of DCPIP was determined spectrophotometrically at wavelength λ=595 nm. […] The activity determination is carried out in microtiter plates (96 cavities) in a reaction volume of 200 μl. Here, 155 μl of dilute membrane suspension were initially charged in 50 mM of phosphate buffer, pH 6.8, 10 mM KCl. Depending on the activity of the PS II preparation, the dilution was adjusted such that the measurement of the decrease in absorption (λ=595 nm) was linear for at least 10 min. In each case 5 μl solutions of the test compounds of a concentration of 100 μM in DMSO were added to the enzyme suspension; controls contained 5 μl of DMSO; the final concentration of DMSO in the reaction batch was thus 2.5% (v/v); this concentration had no adverse effect on the enzymatic activity. On each microtiter plate, a known PS II inhibitor, for example metribuzin, was used as standard, which allowed the quality of the PS II test to be assessed. The reaction was started by addition of 40 μl DCPIP solution (600 μM in distilled water); the final concentration of DCPIP was 120 μM. Measurement of absorption is carried out over a period of 10 min at 22° C. and with exposure to light. Using metribuzin as comparative substance, the results for the efficacy of the compounds of the general formula (I) at 100 μM are stated in the table below using the following classification: ++++(inhibition≥90%), +++(90%>inhibition≥70%), ++(70%>inhibition≥50%), +(50%>inhibition≥30%).

Poa annua [8] = assay: Herbicidal pre-emergence action (Part 2), 1280 g/ha; assay type: in vivo; conditions: application rate 1280 g/ha, scored visually after about 3 weeks, Table D3
How it was run: (§2)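 Surface soil treatment over sown weed seeds in sandy loam used formulated compound in water with 0.5% additive at a 600 L/ha spray volume. Effect was rated visually in percent versus untreated plants after about three weeks of greenhouse growth.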

Stellaria media [9] = assay: as above; assay type: in vivo; conditions: application rate 1280 g/ha, scored visually after about 3 weeks, Table D8
How it was run: as §2

Matricaria inodora [10] = assay: as above; assay type: in vivo; conditions: application rate 1280 g/ha, scored visually after about 3 weeks, Table D7
How it was run: as §2

Abutilon theophrasti [11] = assay: as above; assay type: in vivo; conditions: application rate 1280 g/ha, scored visually after about 3 weeks, Table D5
How it was run: as §2

Amaranthus retroflexus [12] = assay: as above; assay type: in vivo; conditions: application rate 1280 g/ha, scored visually after about 3 weeks, Table D6
How it was run: as §2

Echinochloa crus-galli [13] = assay: Herbicidal post-emergence action (Part 2), 1280 g/ha; assay type: in vivo; conditions: post-emergence (Part 2), application rate 1280 g/ha, rated visually after about 3 weeks vs untreated controls
How it was run: (§3)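 Plants at the one-leaf stage were treated on green parts with wettable powder or emulsion concentrate preparations diluted in water containing 0.5% additive. Effects were judged by eye after about 3 weeks in the greenhouse, relative to untreated plants.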

Abutilon theophrasti [14] = assay: as above; assay type: in vivo; conditions: application rate 1280 g/ha, rated visually after about 3 weeks, Table C4
How it was run: as §3

Amaranthus retroflexus [15] = assay: as above; assay type: in vivo; conditions: application rate 1280 g/ha, rated visually after about 3 weeks, Table C5
How it was run: as §3

Setaria viridis [16] = assay: Herbicidal pre-emergence action (Part 2), 1280 g/ha; assay type: in vivo; conditions: application rate 1280 g/ha, scored visually after about 3 weeks, Table D4
How it was run: as §2

Echinochloa crus-galli [17] = assay: as above; assay type: in vivo; conditions: application rate 1280 g/ha, scored visually after about 3 weeks, Table D1
How it was run: as §2

Poa annua [18] = assay: Herbicidal post-emergence action (Part 2), 1280 g/ha; assay type: in vivo; conditions: application rate 1280 g/ha, rated visually after about 3 weeks, Table C2
How it was run: as §3

Matricaria inodora [19] = assay: as above; assay type: in vivo; conditions: application rate 1280 g/ha, rated visually after about 3 weeks, Table C6
How it was run: as §3

Setaria viridis [20] = assay: Post-emergence herbicidal action, greenhouse, 320 g/ha; assay type: in vivo; conditions: application rate 320 g/ha, rated visually after about 3 weeks vs untreated controls
Method: (§4) Seeds of monocotyledonous and dicotyledonous weeds and crop plants were placed in sandy loam in plastic or wood-fiber pots, covered with soil and cultivated in a greenhouse under controlled growth conditions. 2 to 3 weeks after sowing, the test plants were treated at the one-leaf stage. The compounds of the invention, formulated in the form of wettable powders (WP) or as emulsion concentrates (EC), were then sprayed onto the green parts of the plants as aqueous suspension or emulsion with addition of 0.5% additive at a water application rate of […] (converted). After the test plants had been kept in the greenhouse under optimum growth conditions for about 3 weeks, the activity of the preparations was rated visually in comparison to untreated controls. For example, 100% activity=the plants have died, 0% activity=like control plants. Tables A1 to A14 below show the effects of selected compounds of the general formula (I) according to Tables 1.1 to 1.150 on various harmful plants and at an application rate corresponding to 320 g/ha, which were obtained by the experimental procedure mentioned above.

Stellaria media [21] = assay: as above; assay type: in vivo; conditions: application rate 320 g/ha, rated visually after about 3 weeks vs untreated controls
Method: as §4

Matricaria inodora [22] = assay: as above; assay type: in vivo; conditions: application rate 320 g/ha, rated visually after about 3 weeks vs untreated controls
Method: as §4

Abutilon theophrasti [23] = assay: as above; assay type: in vivo; conditions: application rate 320 g/ha, rated visually after about 3 weeks vs untreated controls
Method: as §4

Digitaria sanguinalis = assay: as above; assay type: in vivo; conditions: application rate 320 g/ha, rated visually after about 3 weeks vs untreated controls
Method: as §4

Amaranthus retroflexus [24] = assay: as above; assay type: in vivo; conditions: application rate 320 g/ha, rated visually after about 3 weeks vs untreated controls
Method: as §4

Lolium rigidum = assay: Herbicidal pre-emergence action (Part 2), 1280 g/ha; assay type: in vivo; conditions: application rate 1280 g/ha, scored visually after about 3 weeks, Table D2
How it was run: as §2

Stellaria media [25] = assay: Herbicidal post-emergence action (Part 2), 1280 g/ha; assay type: in vivo; conditions: application rate 1280 g/ha, rated visually after about 3 weeks, Table C7
How it was run: as §3

Pharbitis purpurea [26] = assay: Post-emergence herbicidal action, greenhouse, 320 g/ha; assay type: in vivo; conditions: application rate 320 g/ha, rated visually after about 3 weeks vs untreated controls
Method: as §4

SMILES	Poa Annua (Poa annua [8])	Stellaria media (Stellaria media [9])	Matricaria inodora (Matricaria inodora [10])	Abutilon theophrasti (Abutilon theophrasti [11])	Amaranthus retroflexus (Amaranthus retroflexus [12])	Abutilon theophrasti (Abutilon theophrasti [14])	Amaranthus retroflexus (Amaranthus retroflexus [15])	Setaria viridis (Setaria viridis [16])	Echinochloa crus-galli (Echinochloa crus-galli [17])	Matricaria inodora (Matricaria inodora [19])	Lolium rigidum (Lolium rigidum)	Stellaria media (Stellaria media [25])	further results
CN1CCC(O)N(c2cc(C(C)(C)C)on2)C1=O (stereo not drawn) [I.1-162, 3-(5-tert-Butyl-1,2-oxazol-3-yl)-4-hydroxy-1-methyltetrahydropyrimidin-2(1H)-one]	–	–	–	–	–	–	–	–	–	–	–	–	Setaria viridis (efficacy in %) (Setaria viridis [1]): 90%; Stellaria media (efficacy in %) (Stellaria media [2]): 90%; Echinochloa crus-galli (efficacy in %) (Echinochloa crus-galli [3]): 80%; Avena fatua (efficacy in %) (Avena fatua): 90%; Matricaria inodora (efficacy in %) (Matricaria inodora [4]): 100%; Abutilon theophrasti (efficacy in %) (Abutilon theophrasti [5]): 100%; Alopecurus myosuroides (efficacy in %) (Alopecurus myosuroides): 90%; Viola tricolor (efficacy in %) (Viola tricolor): 90%; Pharbitis purpurea (efficacy in %) (Pharbitis purpurea [6]): 80%; Polygonum convolvulus (efficacy in %) (Polygonum convolvulus): 90%; Hordeum murinum (efficacy in %) (Hordeum murinum): 90%; Amaranthus retroflexus (efficacy in %) (Amaranthus retroflexus [7]): 100%; inhibition at 100 µM (photosystem II (PS II)): > 90%
CC(C)CC(=O)OC1CCN(C)C(=O)N1c1cc(C(C)(C)C)no1 (stereo not drawn) [I.7-290]	90%	100%	100%	100%	100%	100%	100%	–	–	–	–	–	Echinochloa crus-galli (Echinochloa crus-galli [13]): 100%
CC(=O)OC1N(c2cc(C(C)(C)C)on2)C(=O)N(C)CC1(C)C (stereo not drawn) [I.62-162]	100%	100%	100%	100%	100%	100%	100%	100%	90%	100%	–	–	Poa Annua (Poa annua [18]): 100%
CN1CC(F)(F)C(O)N(c2cc(C(C)(C)C)on2)C1=O (stereo not drawn) [I.141-162]	–	–	–	–	–	–	–	–	–	–	–	–	Stellaria media (efficacy in %) (Stellaria media [2]): 100%; Avena fatua (efficacy in %) (Avena fatua): 80%; Abutilon theophrasti (efficacy in %) (Abutilon theophrasti [5]): 90%; Viola tricolor (efficacy in %) (Viola tricolor): 90%; Polygonum convolvulus (efficacy in %) (Polygonum convolvulus): 90%; Amaranthus retroflexus (efficacy in %) (Amaranthus retroflexus [7]): 100%; Setaria viridis (efficacy in %) (Setaria viridis [20]): 100%; Stellaria media (efficacy in %) (Stellaria media [21]): 100%; Matricaria inodora (efficacy in %) (Matricaria inodora [22]): 80%; Abutilon theophrasti (efficacy in %) (Abutilon theophrasti [23]): 100%; Digitaria sanguinalis (efficacy in %) (Digitaria sanguinalis): 100%; Amaranthus retroflexus (efficacy in %) (Amaranthus retroflexus [24]): 90%
CCCC(=O)OC1CC2CCCN2C(=O)N1c1cc(C(C)(C)C)on1 (stereo not drawn) [I.126-162]	100%	100%	100%	100%	100%	100%	100%	100%	100%	100%	100%	100%	Poa Annua (Poa annua [18]): 100%; Echinochloa crus-galli (Echinochloa crus-galli [13]): 90%
CC(=O)OC1CCN(C)C(=O)N1c1cc(C(F)(F)F)ccn1 (stereo not drawn) [I.2-449]	100%	100%	100%	–	100%	–	100%	–	–	–	90%	100%	–
CC(C)(C)c1cc(N2C(=O)N3CCCC3CC2O)no1 (stereo not drawn) [I.121-162]	100%	100%	100%	100%	100%	–	–	100%	100%	–	90%	–	Abutilon theophrasti (efficacy in %) (Abutilon theophrasti [23]): 80%; Pharbitis purpurea (efficacy in %) (Pharbitis purpurea [26]): 80%; Amaranthus retroflexus (efficacy in %) (Amaranthus retroflexus [24]): 100%
CC(C)C(=O)OC1CCN(C)C(=O)N1c1cc(C(C)(C)C)no1 (stereo not drawn) [I.5-290, 3-(3-tert-Butyl-1,2-oxazol-5-yl)-1-methyl-2-oxohexahydropyrimidin-4-yl 2-methylpropanoate]	90%	100%	90%	100%	100%	100%	100%	90%	90%	100%	–	100%	–

From patent US20200390100A1, “SUBSTITUTED N-HETEROCYCLYL- AND N-HETEROARYL-TETRAHYDROPYRIMIDINONES AND THE SALTS THEREOF, AND THE USE OF SAME AS HERBICIDAL ACTIVE SUBSTANCES” (Bayer Aktiengesellschaft, priority 2017, published 2020)
